According to paper PMC9102668, “Highly Cytotoxic Osmium(II) Compounds and Their Ruthenium(II) Analogues Targeting Ovarian Carcinoma Cell Lines and Evading Cisplatin Resistance Mechanisms” (International Journal of Molecular Sciences, 2022):

What was measured:
Type in all cases: cell-based
Fibroblasts = experiment: IC50 on non-cancerous cell cultures; settings: normal primary short-term cell culture
MCF10A = experiment: IC50 on non-cancerous cell cultures; settings: non-cancerous breast epithelial cell line
histone γH2AX-foci = experiment: γH2AX foci analysis (DNA damage); settings: IC50 concentration, 24h incubation
Description: ROS production may also lead to endoplasmatic reticulum stress-induced apoptosis. In general, many ruthenium(II) complexes with different ligands induce intracellular ROS [94, 95, 96, 97, 98, 99]. Moreover, the cytotoxic activity of Os(II) compounds can be inhibited by vitamin E co-treatment pointing to the contribution of ROS [88]. In addition to mitochondrial dysfunction, Ru(II) complexes may affect glycolysis or topoisomerase I/II, thus inducing necroptosis. Ru(II) compounds with modified pyrithione ligands were recently described to overcome platinum resistance in ovarian cancer cells by inducing cytostatic G1 arrest, TrxR inhibition, and cell membrane damage. […] Future studies may identify the specific target proteins enabling molecular docking studies and specific refinement of the organo-metal compound structure. Altogether, presented compounds may use some of these alternative modes of action as well, as we see efficient cell death but no cell cycle arrest induction by Ru3/Ru14. Furthermore, the ruthenium(II) core atom might be responsible for this effect because of the lack of anticancer behaviour of the ligand L14 (Supplementary Figure S8). To further confirm that Ru compounds use another mechanism of action, DNA damage analyses were conducted for Ru3 and Ru14 (Figure 8). […]

[1] = system: Cisplatin resistant cell lines; experiment: Mean IC50 (MTT assay) on Cisplatin resistant cell lines
Procedure: (§1) Thus, it can be concluded that the biological activity is mediated by a longer chain (butoxy) at the meta-position, whereas the ortho- and para-positions are more suitable with a shorter chain (ethoxy). To have a further look at the influence of the different ligand systems and substitution patterns, all β-Hydroxydithiocinnamic acid alkyl esters were tested under same conditions as their derived ruthenium(II) complexes (Figure 5B, Supplementary Table S3). […] All ligands are less cytotoxic than Cisplatin itself and therefore the metal(II) center is necessary for the high cytotoxic activity, what is in clear contrast to the literature for O,S-chelating ruthenium(II) or osmium(II) compounds with thiomaltol ligand [48, 71] but confirmed for Ru(II)/Os(II) compounds with N,N-bidentate glycosyl heterocyclic ligands. This is exemplarily shown by the comparison of mean IC50 values for Cisplatin, L14, and Ru14 (Supplementary Figure S8).
Ovarian cancer cell lines were cultured under standard conditions (5% CO2, 37 °C, 90% humidity) in RPMI medium supplemented with 10% FCS, 100 U/mL penicillin and 100 µg/mL streptomycin (Life Technologies, Dreieich, Germany). Cisplatin (Sigma, Taufkirchen, Germany) was freshly dissolved at 1 mg/mL in 0.9% NaCl solution and diluted appropriately. New ruthenium(II) complexes and ligands were dissolved in dmso. Platinum-resistant A2780 and SKOV3 cells were established by repeated rounds of 3-day incubations with increasing amounts of Cisplatin starting with 0.1 µM. The concentration was doubled after 3 incubations, interrupted by recovery phases with normal medium. […] Determinations of IC50 values were carried out using the CellTiter96 non-radioactive proliferation assay (MTT assay, Promega, Mannheim, Germany). After seeding 5000 cells per well in a 96-well plate, cells were allowed to attach for 24 h and were incubated for 48 h with different concentrations of the substances ranging from 0 to 500 µM for Ruthenium and 0 to 1000 µM for ligand tests (0, 1, 10, 50, 100, 500, 1000 µm), for Cisplatin from 0 to 100 µM (0.1, 1, 5, 10, 50, 100 µM). Each measurement was done in triplicate and repeated 3 times. The proportion of viable cells was quantified by the MTT assay and after background subtraction relative values compared to the mean of medium controls were calculated. Non-linear regression analyses applying the Hill slope were run in GraphPad 5.0 software.

all cancer cell lines = experiment: Mean IC50 (MTT assay) for all cancer cell lines
Procedure: as §1
Ovarian cancer cell lines were cultured under standard conditions (5% CO2, 37 °C, 90% humidity) in RPMI medium supplemented with 10% FCS, 100 U/mL penicillin and 100 µg/mL streptomycin (Life Technologies, Dreieich, Germany). […] The proportion of viable cells was quantified by the MTT assay and after background subtraction relative values compared to the mean of medium controls were calculated. […]

“[(η^6-p-cymene)Ru(1-(3-ethoxyphenyl)-3-(methylthio)-3-thioxo-prop-1-en-1-olate-O,S)] [Ru14]” was tested, and the IC50 (Fibroblasts) was over 100 µM, the IC50 (MCF10A) was 16.7 µM and the γH2AX-foci induction (histone γH2AX-foci) was “less γH2AX-foci as Cisplatin”. The “mean IC50 value on Cisplatin resistant cell lines compared with Cisplatin” value [1] was “lower” and the “mean IC50 value / cytotoxicity for all cancer cell lines compared with Cisplatin” value (all cancer cell lines) was “lower”.
